In patent publication US20030180723A1, “Cloning of novel gene sequences expressed and repressed during winter dormancy in the apical buds of tea ( Camellia sinensis L. (O.) Kuntze) bush” (priority 2001, published 2003):

Test system: dormant apical buds of tea bush
Test: Forced break of bud dormancy by GA3 on a winter-dormant tea bush
Assay type: in vivo, Camellia sinensis L. (O.) Kuntze
Conditions: out of 20 buds; 5 μM in 5% ethanol, applied onto each dormant bud with a paint brush at least 4 times on the same day, December; bud length and perimeter as indicator of growth
Experimental: Above Example 6 identified 4 differentially expressed genes cloned by us. To further correlate these differentially expressed genes with the phenomenon of dormancy, the dormant bush during winter month was forced to break bud dormancy using a plant growth regulator gibberrellic acid (hereinafter referred to GA3). GA3 was dissolved in 5% ethanol to yield a final concetration of 5 μM. The solution was applied onto each dormant bud with the help of a paint brush at least 4 times on the same day during the month of December. Bud length and its perimeter was recorded regularly as an indicator of its growth. […] These were termed as forced ND apical buds. These were collected and stored as mentioned in Example 1 and used for the purpose of RNA isolation to be used in northern analysis.

C=C1C[C@]23C[C@@]1(O)CC[C@H]2[C@@]12C=C[C@H](O)[C@@](C)(C(=O)O1)[C@H]2[C@@H]3C(=O)O [GA3, gibberrellic acid]
buds that showed increase in growth (dormancy break): 10 buds
